The source made the active and inactive calls. The rule behind the calls is not given here.
Key:
Liposcelis paeta [1] = assay: Insecticidal activity against Liposcelis paeta in compound pre-treated wheat grains assessed as mortality at 1 ppm after 14 days (reference value: 5.6 +/-1.8%); assay type: functional
Liposcelis entomophila [2] = assay: Insecticidal activity against Liposcelis entomophila in compound pre-treated maize grains assessed as mortality at 1 ppm after 14 days (reference value: 14.4 +/-4.1%); assay type: functional
Liposcelis entomophila [3] = assay: Insecticidal activity against Liposcelis entomophila in compound pre-treated maize grains assessed as mortality at 1 ppm after 7 days (reference value: 15.6 +/-6.9%); assay type: functional
Liposcelis entomophila [4] = assay: Insecticidal activity against Liposcelis entomophila in compound pre-treated rice grains assessed as mortality at 1 ppm after 14 days (reference value: 10.0 +/-4.7%); assay type: functional
Liposcelis paeta [5] = assay: Insecticidal activity against Liposcelis paeta in compound pre-treated wheat grains assessed as mortality at 1 ppm after 7 days (reference value: 7.8 +/-3.2%); assay type: functional
[6] = test system: Liposcelis bostrychophila; assay: Insecticidal activity against Liposcelis bostrychophila (booklice) in compound pre-treated maize grains assessed as decrease in progeny production at 1 ppm after 30 days; assay type: functional, organism-based
[7] = test system: Liposcelis bostrychophila; assay: Insecticidal activity against Liposcelis bostrychophila (booklice) in compound pre-treated rice grains assessed as effect on progeny production at 1 ppm after 30 days; assay type: functional, organism-based
[8] = test system: Liposcelis bostrychophila; assay: Insecticidal activity against Liposcelis bostrychophila (booklice) in compound pre-treated wheat grains assessed as effect on progeny production at 1 ppm after 30 days; assay type: functional, organism-based
[9] = test system: Liposcelis bostrychophila; assay: Insecticidal activity against Liposcelis bostrychophila (booklice) in compound pre-treated maize grains assessed as mortality at 1 ppm after 14 days (reference value: 13.5 +/-5.3%); assay type: functional
[10] = test system: Liposcelis bostrychophila; assay: Insecticidal activity against Liposcelis bostrychophila (booklice) in compound pre-treated maize grains assessed as mortality at 1 ppm after 7 days (reference value: 8.9 +/-2.6%); assay type: functional
[11] = test system: Liposcelis bostrychophila; assay: Insecticidal activity against Liposcelis bostrychophila (booklice) in compound pre-treated rice grains assessed as mortality at 1 ppm after 14 days (reference value: 9.7 +/-2.4%); assay type: functional
[12] = test system: Liposcelis bostrychophila; assay: Insecticidal activity against Liposcelis bostrychophila (booklice) in compound pre-treated rice grains assessed as mortality at 1 ppm after 7 days (reference value: 8.9 +/-4.5%); assay type: functional
[13] = test system: Liposcelis bostrychophila; assay: Insecticidal activity against Liposcelis bostrychophila (booklice) in compound pre-treated wheat grains assessed as mortality at 1 ppm after 14 days (reference value: 6.8 +/-3.3%); assay type: functional
[14] = test system: Liposcelis bostrychophila; assay: Insecticidal activity against Liposcelis bostrychophila (booklice) in compound pre-treated wheat grains assessed as mortality at 1 ppm after 7 days (reference value: 3.3 +/-1.7%); assay type: functional
Lepinotus reticulatus [15] = assay: Insecticidal activity against Lepinotus reticulatus in compound pre-treated maize grains assessed as mortality at 1 ppm after 7 days (reference value: 34.4 +/-11.4%); assay type: functional
Lepinotus reticulatus [16] = assay: Insecticidal activity against Lepinotus reticulatus in compound pre-treated rice grains assessed as mortality at 1 ppm after 14 days (reference value: 15.5 +/-4.1%); assay type: functional
Lepinotus reticulatus [17] = assay: Insecticidal activity against Lepinotus reticulatus in compound pre-treated rice grains assessed as mortality at 1 ppm after 7 days (reference value: 6.8 +/-2.4%); assay type: functional
Lepinotus reticulatus [18] = assay: Insecticidal activity against Lepinotus reticulatus in compound pre-treated wheat grains assessed as mortality at 1 ppm after 14 days (reference value: 21.1 +/-7.4%); assay type: functional
Lepinotus reticulatus [19] = assay: Insecticidal activity against Lepinotus reticulatus in compound pre-treated wheat grains assessed as mortality at 1 ppm after 7 days (reference value: 10.0 +/-5.3%); assay type: functional
Lepinotus reticulatus [20] = assay: Insecticidal activity against Lepinotus reticulatus in compound pre-treated rice grains assessed as decrease in progeny production at 1 ppm after 30 days; assay type: functional, organism-based
Liposcelis entomophila [21] = assay: Insecticidal activity against Liposcelis entomophila in compound pre-treated wheat grains assessed as decrease in progeny production at 1 ppm after 30 days; assay type: functional, organism-based
Liposcelis entomophila [22] = assay: Insecticidal activity against Liposcelis entomophila in compound pre-treated rice grains assessed as mortality at 1 ppm after 7 days (reference value: 3.3 +/-2.6%); assay type: functional
Liposcelis entomophila [23] = assay: Insecticidal activity against Liposcelis entomophila in compound pre-treated wheat grains assessed as mortality at 1 ppm after 14 days (reference value: 13.3 +/-4.7%); assay type: functional
Liposcelis entomophila [24] = assay: Insecticidal activity against Liposcelis entomophila in compound pre-treated wheat grains assessed as mortality at 1 ppm after 7 days (reference value: 5.6 +/-2.9%); assay type: functional
Lepinotus reticulatus [25] = assay: Insecticidal activity against Lepinotus reticulatus in compound pre-treated maize grains assessed as decrease in progeny production at 1 ppm after 30 days; assay type: functional, organism-based
Liposcelis entomophila [26] = assay: Insecticidal activity against Liposcelis entomophila in compound pre-treated maize grains assessed as decrease in progeny production at 1 ppm after 30 days; assay type: functional, organism-based
Lepinotus reticulatus [27] = assay: Insecticidal activity against Lepinotus reticulatus in compound pre-treated wheat grains assessed as decrease in progeny production at 1 ppm after 30 days; assay type: functional, organism-based
Lepinotus reticulatus [28] = assay: Insecticidal activity against Lepinotus reticulatus in compound pre-treated maize grains assessed as mortality at 1 ppm after 14 days (reference value: 61.1 +/-11.9%); assay type: functional
Liposcelis paeta [29] = assay: Insecticidal activity against Liposcelis paeta in compound pre-treated maize grains assessed as effect on progeny production at 1 ppm after 30 days; assay type: functional, organism-based
Liposcelis paeta [30] = assay: Insecticidal activity against Liposcelis paeta in compound pre-treated maize grains assessed as mortality at 1 ppm after 14 days (reference value: 14.1 +/-4.1%); assay type: functional
Liposcelis paeta [31] = assay: Insecticidal activity against Liposcelis paeta in compound pre-treated maize grains assessed as mortality at 1 ppm after 7 days (reference value: 13.3 +/-3.3%); assay type: functional
Liposcelis paeta [32] = assay: Insecticidal activity against Liposcelis paeta in compound pre-treated rice grains assessed as mortality at 1 ppm after 14 days (reference value: 3.4 +/-1.6%); assay type: functional
Liposcelis paeta [33] = assay: Insecticidal activity against Liposcelis paeta in compound pre-treated rice grains assessed as mortality at 1 ppm after 7 days (reference value: 3.3 +/-1.7%); assay type: functional

Structure (SMILES): CC[C@H]1CCC[C@H](O[C@H]2CC[C@H](N(C)C)[C@@H](C)O2)[C@@H](C)C(=O)C2=C[C@@H]3[C@@H](C=C(C)[C@@H]4C[C@@H](O[C@@H]5O[C@@H](C)[C@H](OC)[C@@H](OC)[C@H]5OC)C[C@@H]34)[C@@H]2CC(=O)O1.CC[C@H]1CCC[C@H](O[C@H]2CC[C@H](N(C)C)[C@@H](C)O2)[C@@H](C)C(=O)C2=C[C@@H]3[C@@H](C=C[C@@H]4C[C@@H](O[C@@H]5O[C@@H](C)[C@H](OC)[C@@H](OC)[C@H]5OC)C[C@@H]34)[C@@H]2CC(=O)O1
- mortality at 1 ppm (Liposcelis paeta [1]): 55.6%
- mortality at 1 ppm (Liposcelis entomophila [2]): 98.9%
- mortality at 1 ppm (Liposcelis entomophila [3]): 90%
- mortality at 1 ppm (Liposcelis entomophila [4]): 52.3%
- mortality at 1 ppm (Liposcelis paeta [5]): 46.7%
- inhibition [6]: Active
- inhibition [7]: inactive
- inhibition [8]: inactive
- mortality at 1 ppm [9]: 76.4%
- mortality at 1 ppm [10]: 71.1%
- mortality at 1 ppm [11]: 45.7%
- mortality at 1 ppm [12]: 48.9%
- mortality at 1 ppm [13]: 75.6%
- mortality at 1 ppm [14]: 74.5%
- mortality at 1 ppm (Lepinotus reticulatus [15]): 94.5%
- mortality at 1 ppm (Lepinotus reticulatus [16]): 71.1%
- mortality at 1 ppm (Lepinotus reticulatus [17]): 80%
- mortality at 1 ppm (Lepinotus reticulatus [18]): 96.7%
- mortality at 1 ppm (Lepinotus reticulatus [19]): 94.4%
- inhibition (Lepinotus reticulatus [20]): Active
- inhibition (Liposcelis entomophila [21]): Active
- mortality at 1 ppm (Liposcelis entomophila [22]): 52.2%
- mortality at 1 ppm (Liposcelis entomophila [23]): 84.4%
- mortality at 1 ppm (Liposcelis entomophila [24]): 61.2%
- inhibition (Lepinotus reticulatus [25]): Active
- inhibition (Liposcelis entomophila [26]): Active
- inhibition (Lepinotus reticulatus [27]): Active
- mortality at 1 ppm (Lepinotus reticulatus [28]): 100%
- inhibition (Liposcelis paeta [29]): inactive
- mortality at 1 ppm (Liposcelis paeta [30]): 37.8%
- mortality at 1 ppm (Liposcelis paeta [31]): 16.7%
- mortality at 1 ppm (Liposcelis paeta [32]): 18.8%
- mortality at 1 ppm (Liposcelis paeta [33]): 10%

Reference: ChEMBL document CHEMBL3044811, “Efficacy of grain protectants against four psocid species on maize, rice and wheat” (2009)
